Earlier results on five compounds are cited in US20230270851A1, “METHODS FOR THE TREATMENT OF IDIOPATHIC ORBITAL INFLAMMATION AND RELATED CONDITIONS” (HORIZON THERAPEUTICS IRELAND DAC, priority 2020, published 2023).

The structures appear in SMILES notation.

Data set [1] has as its target ALK (Homo sapiens, UniProt Q9UM73). The conditions noted are these: cited from earlier work.
For data set [2], the target named is IGF-1R (Homo sapiens, UniProt P08069). The conditions noted are these: A-928605: purified enzyme; INSM-18: receptor activation; cited from earlier work.
Chain of IGF-1R (P08069 31-1367): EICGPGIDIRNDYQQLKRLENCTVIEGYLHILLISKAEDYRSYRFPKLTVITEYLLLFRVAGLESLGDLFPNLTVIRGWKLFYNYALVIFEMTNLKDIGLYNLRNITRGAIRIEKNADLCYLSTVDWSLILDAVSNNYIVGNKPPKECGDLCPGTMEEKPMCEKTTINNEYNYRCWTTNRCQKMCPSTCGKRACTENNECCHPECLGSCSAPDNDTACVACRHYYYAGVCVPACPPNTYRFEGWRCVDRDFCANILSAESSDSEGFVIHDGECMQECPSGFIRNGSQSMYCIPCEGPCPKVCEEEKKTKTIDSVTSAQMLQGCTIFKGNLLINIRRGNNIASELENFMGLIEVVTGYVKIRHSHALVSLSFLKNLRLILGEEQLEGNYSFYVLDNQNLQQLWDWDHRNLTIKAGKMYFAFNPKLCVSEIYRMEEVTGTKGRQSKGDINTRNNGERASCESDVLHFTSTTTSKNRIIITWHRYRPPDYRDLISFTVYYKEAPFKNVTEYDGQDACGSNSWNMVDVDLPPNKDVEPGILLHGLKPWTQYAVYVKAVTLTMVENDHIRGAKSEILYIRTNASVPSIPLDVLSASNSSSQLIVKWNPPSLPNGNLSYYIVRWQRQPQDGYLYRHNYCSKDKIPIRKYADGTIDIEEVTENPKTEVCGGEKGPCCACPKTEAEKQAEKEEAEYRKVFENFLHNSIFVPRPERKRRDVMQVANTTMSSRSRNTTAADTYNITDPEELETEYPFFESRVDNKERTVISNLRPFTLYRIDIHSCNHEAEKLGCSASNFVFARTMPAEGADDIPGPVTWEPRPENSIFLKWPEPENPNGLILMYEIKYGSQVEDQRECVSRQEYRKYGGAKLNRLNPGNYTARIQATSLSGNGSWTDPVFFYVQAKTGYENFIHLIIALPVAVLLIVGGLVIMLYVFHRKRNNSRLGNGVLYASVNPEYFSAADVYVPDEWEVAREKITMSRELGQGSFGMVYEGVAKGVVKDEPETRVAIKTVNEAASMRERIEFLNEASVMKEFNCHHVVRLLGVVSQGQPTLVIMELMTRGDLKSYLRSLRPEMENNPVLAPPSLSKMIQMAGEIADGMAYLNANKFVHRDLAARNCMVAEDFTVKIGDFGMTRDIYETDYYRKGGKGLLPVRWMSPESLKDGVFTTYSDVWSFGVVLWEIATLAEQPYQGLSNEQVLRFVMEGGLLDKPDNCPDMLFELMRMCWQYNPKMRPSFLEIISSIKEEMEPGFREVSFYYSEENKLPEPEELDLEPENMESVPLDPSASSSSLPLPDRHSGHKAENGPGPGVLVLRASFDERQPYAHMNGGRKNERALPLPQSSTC
Data set [3] relates to neuroblastoma. The conditions noted are these: cited from earlier work.
The conditions of data set [4]: cited from earlier work.
Data set [5] relates to tumors. The conditions noted are these: in vivo; cited from earlier work.
The subject of data set [6] is IGF-1 R-overexpressing tumor cells. The conditions noted are these: cited from earlier work.
The target of data set [7] is IGF-IR (Homo sapiens, UniProt P08069). The conditions noted are these: cited from earlier work.
Chain of IGF-IR (P08069 31-1367): as above
The target of data set [8] is c-erbB2/HER2/neu receptor (Homo sapiens, UniProt P04626). The conditions noted are these: cited from earlier work.
Chain of c-erbB2/HER2/neu receptor (P04626 23-1255): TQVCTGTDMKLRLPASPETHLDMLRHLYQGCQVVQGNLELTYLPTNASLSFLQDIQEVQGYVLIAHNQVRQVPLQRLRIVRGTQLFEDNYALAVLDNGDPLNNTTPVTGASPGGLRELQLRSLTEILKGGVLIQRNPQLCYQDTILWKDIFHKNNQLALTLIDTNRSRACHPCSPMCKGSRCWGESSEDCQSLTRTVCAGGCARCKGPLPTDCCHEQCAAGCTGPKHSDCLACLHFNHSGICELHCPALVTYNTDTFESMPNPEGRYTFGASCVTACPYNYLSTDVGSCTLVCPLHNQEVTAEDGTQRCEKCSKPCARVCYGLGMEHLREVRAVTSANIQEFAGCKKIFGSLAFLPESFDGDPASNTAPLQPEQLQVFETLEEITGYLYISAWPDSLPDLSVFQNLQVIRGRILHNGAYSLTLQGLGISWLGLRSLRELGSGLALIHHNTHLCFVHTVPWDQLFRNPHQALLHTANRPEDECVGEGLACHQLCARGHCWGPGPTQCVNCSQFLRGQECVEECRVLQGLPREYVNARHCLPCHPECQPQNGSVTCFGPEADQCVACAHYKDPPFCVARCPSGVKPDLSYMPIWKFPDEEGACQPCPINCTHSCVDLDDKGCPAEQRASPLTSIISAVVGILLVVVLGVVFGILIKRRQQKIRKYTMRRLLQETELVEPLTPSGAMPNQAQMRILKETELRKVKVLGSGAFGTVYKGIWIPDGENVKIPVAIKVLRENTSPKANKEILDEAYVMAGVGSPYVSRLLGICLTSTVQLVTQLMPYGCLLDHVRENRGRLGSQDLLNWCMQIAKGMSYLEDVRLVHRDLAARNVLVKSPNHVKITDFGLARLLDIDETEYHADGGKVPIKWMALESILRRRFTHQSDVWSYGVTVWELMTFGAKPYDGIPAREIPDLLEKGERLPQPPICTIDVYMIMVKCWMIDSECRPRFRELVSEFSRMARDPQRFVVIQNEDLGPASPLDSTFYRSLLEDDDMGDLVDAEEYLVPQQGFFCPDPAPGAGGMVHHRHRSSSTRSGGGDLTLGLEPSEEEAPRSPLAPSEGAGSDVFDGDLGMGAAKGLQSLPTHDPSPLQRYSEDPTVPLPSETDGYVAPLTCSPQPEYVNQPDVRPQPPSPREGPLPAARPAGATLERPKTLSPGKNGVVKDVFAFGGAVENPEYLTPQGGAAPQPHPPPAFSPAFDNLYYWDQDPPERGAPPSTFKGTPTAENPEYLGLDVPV
Data set [9] concerns susceptible tumor cell populations. To be noted: cited from earlier work.

Chain of ALK (Q9UM73 19-1620, species assumed): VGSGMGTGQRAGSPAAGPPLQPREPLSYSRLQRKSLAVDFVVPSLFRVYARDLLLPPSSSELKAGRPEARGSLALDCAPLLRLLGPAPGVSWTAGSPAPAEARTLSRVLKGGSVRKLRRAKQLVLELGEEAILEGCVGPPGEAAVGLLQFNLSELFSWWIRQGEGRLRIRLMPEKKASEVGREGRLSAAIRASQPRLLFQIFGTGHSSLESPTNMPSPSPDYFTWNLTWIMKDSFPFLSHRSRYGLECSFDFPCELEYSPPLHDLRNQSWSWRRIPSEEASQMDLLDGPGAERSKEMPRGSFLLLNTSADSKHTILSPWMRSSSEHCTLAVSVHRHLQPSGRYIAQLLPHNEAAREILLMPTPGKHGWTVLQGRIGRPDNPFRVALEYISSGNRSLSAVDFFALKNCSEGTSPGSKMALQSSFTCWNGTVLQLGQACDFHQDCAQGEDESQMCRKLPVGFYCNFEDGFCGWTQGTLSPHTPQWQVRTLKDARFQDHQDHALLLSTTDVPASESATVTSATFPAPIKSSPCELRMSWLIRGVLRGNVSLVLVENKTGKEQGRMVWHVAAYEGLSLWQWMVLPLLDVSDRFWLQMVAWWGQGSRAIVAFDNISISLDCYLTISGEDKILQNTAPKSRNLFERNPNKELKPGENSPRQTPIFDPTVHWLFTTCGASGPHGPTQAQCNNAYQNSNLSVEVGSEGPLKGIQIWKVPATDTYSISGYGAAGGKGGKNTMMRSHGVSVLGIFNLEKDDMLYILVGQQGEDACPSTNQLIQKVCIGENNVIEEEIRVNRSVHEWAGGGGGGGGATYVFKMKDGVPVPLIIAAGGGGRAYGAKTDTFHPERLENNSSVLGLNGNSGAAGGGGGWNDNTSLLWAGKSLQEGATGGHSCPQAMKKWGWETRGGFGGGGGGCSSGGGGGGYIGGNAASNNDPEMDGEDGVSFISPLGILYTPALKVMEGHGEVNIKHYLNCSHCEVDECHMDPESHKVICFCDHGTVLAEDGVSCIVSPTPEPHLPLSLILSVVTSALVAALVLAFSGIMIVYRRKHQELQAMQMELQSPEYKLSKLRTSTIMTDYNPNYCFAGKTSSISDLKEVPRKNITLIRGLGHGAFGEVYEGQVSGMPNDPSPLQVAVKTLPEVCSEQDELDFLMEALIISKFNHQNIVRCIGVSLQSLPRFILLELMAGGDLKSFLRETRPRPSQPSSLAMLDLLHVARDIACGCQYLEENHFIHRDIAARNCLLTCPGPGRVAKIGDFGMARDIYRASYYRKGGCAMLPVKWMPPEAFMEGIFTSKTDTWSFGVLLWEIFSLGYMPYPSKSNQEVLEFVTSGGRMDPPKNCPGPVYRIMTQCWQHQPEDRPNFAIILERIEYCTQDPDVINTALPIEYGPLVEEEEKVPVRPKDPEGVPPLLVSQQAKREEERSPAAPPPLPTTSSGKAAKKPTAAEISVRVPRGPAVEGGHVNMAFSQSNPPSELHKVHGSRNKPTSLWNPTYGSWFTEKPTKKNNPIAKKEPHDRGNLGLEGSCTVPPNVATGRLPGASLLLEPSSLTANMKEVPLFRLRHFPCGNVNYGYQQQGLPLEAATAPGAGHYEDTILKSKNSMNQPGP

As for `COc1cc(N2CCC(N)CC2)ccc1Nc1ncc(Cl)c(-c2c[nH]c3ccccc23)n1` [AZD3463], the “inhibition of ALK” value in data set [1] was “potent”. Also, in data set [2], the “inhibition of IGF-1R” value is recorded as “potent”. Also, in data set [3] (neuroblastoma), the apoptosis result is listed as “inducing apoptosis”. Moreover, the neuroblastoma growth entry in [3] (overcoming crizotinib resistance) was “inhibition of neuroblastoma growth”.
As to `COCCN1CCN(CCn2ccc(Nc3ncc4c(n3)[C@@H](C)Cc3nn(C)c(-c5ccccc5)c3-4)n2)CC1` [BI885578], the in vivo half-life entry in data set [4] is reported as “short”. For the same compound, in [4] (in vivo), the intestinal absorption entry is listed as “rapid” and the metabolic clearance result is “rapid”. For the same compound, in data set [5], the apoptosis in tumors result is “induction of apoptosis” and the “cell proliferation in tumors” value is “inhibition of cell proliferation”.
In the case of `CCOC(=O)N1CCC(Nc2cc(Cl)cc3c(S(=O)(=O)N4CCO[C@H](COc5ccccc5)C4)c(C(N)=O)[nH]c23)CC1` [PL-225B], in [6], the tumor cell apoptosis result is given as “induction of tumor cell apoptosis” and the tumor cell proliferation entry is given as “inhibition of tumor cell proliferation”. Besides, in [2], the “inhibition of IGF-1R” value is on record as “selectively inhibits”.
On to `Nc1ncnc2c1c(-c1ccc3[nH]c(Cc4ccccc4Cl)nc3c1)nn2[C@H]1CC[C@H](N2CCOCC2)CC1` [Example A-928605], for which, in [7], the “inhibition of intracellular IGF-IR phosphorylation” value is reported as “potent inhibitor”. In [2], the “inhibition of IGF-1R” value was “potent inhibitor”.
Regarding `C[C@H](Cc1ccc(O)c(O)c1)[C@@H](C)Cc1ccc(O)c(O)c1` [INSM-18, nordihydroguaiaretic acid], the “inhibition of activation of the c-erbB2/HER2/neu receptor” value in data set [8] is on record as “directly inhibits activation”. Further, in [2], the “inhibition of IGF-1R” value is reported as “directly inhibits activation”. Further, the “proliferation of susceptible tumor cell populations” value in [9] is recorded as “decreased proliferation”.
